# Tested on: MV-4-11 cells
# Test: Gene expression microarray analysis (Affymetrix PrimeView) and GSEA
# Format: cell-based, human
# Set-up: RFU PODN (11730768_x_at) / Fold change /veh PODN (11730768_x_at) / RFU LINC00158 (11744669_a_at) / Fold change /veh LINC00158 (11744669_a_at) / RFU DUSP10 (11751237_a_at) / Fold change /veh DUSP10 (11751237_a_at) / RFU ID3 (11757404_x_at) / Fold change /veh ID3 (11757404_x_at) / RFU PLEKHG5 (11737974_s_at) / Fold change /veh PLEKHG5 (11737974_s_at) / RFU LRRC4B (11730491_at) / Fold change /veh LRRC4B (11730491_at) / RFU GIMAP4 (11747438_a_at) / Fold change /veh GIMAP4 (11747438_a_at) / RFU KRT8 (11758183_x_at) / Fold change /veh KRT8 (11758183_x_at) / RFU CNN1 (11734310_a_at) / Fold change /veh CNN1 (11734310_a_at) / RFU VPS37D (11726825_at) / Fold change /veh VPS37D (11726825_at) / RFU C10orf10 (11716522_x_at) / Fold change /veh C10orf10 (11716522_x_at) / RFU KIR2DL2 /// KIR2DL4 /// KIR2DL5A /// KIR2DL5B /// KIR2DS1 /// KIR2DS2 /// KIR2DS3 /// KIR2DS4 /// KIR3DL3 /// KIR3DL3 /// KIR3DS1 (11738374_at) / Fold change /veh KIR2DL2 /// KIR2DL4 /// KIR2DL5A /// KIR2DL5B /// KIR2DS1 /// KIR2DS2 /// KIR2DS3 /// KIR2DS4 /// KIR3DL3 /// KIR3DL3 /// KIR3DS1 (11738374_at) / RFU C1QL1 (11718748_at) / Fold change /veh C1QL1 (11718748_at) / RFU TMPRSS4 (11747572_a_at) / Fold change /veh TMPRSS4 (11747572_a_at) / RFU HAMP (11756126_x_at) / Fold change /veh HAMP (11756126_x_at) / RFU RNFT2 (11725882_a_at) / Fold change /veh RNFT2 (11725882_a_at) / RFU NR4A2 (11747474_a_at) / Fold change /veh NR4A2 (11747474_a_at) / RFU ABCC12 (11746883_a_at) / Fold change /veh ABCC12 (11746883_a_at) / RFU TMEM136 (11760407_x_at) / Fold change /veh TMEM136 (11760407_x_at) / RFU CLDN22 /// WWC2 (11732394_at) / Fold change /veh CLDN22 /// WWC2 (11732394_at) / RFU HLA-DPB1 (11760878_x_at) / Fold change /veh HLA-DPB1 (11760878_x_at) / RFU SPINT1 (11716480_a_at) / Fold change /veh SPINT1 (11716480_a_at) / RFU GAP43 (11754022_s_at) / Fold change /veh GAP43 (11754022_s_at) / RFU A4GNT (11735810_at) / Fold change /veh A4GNT (11735810_at) / RFU PRB3 (11715151_x_at) / Fold change /veh PRB3 (11715151_x_at) / RFU TUBB4B (11761932_at) / Fold change /veh TUBB4B (11761932_at) / RFU CAPN14 (11732068_a_at) / Fold change /veh CAPN14 (11732068_a_at) / RFU TMCC2 (11721928_a_at) / Fold change /veh TMCC2 (11721928_a_at) / RFU IRGQ (11745062_a_at) / Fold change /veh IRGQ (11745062_a_at) / RFU FAM174B (11720279_a_at) / Fold change /veh FAM174B (11720279_a_at) / RFU TMPRSS4 (11748680_a_at) / Fold change /veh TMPRSS4 (11748680_a_at) / RFU FAM212B (11763350_a_at) / Fold change /veh FAM212B (11763350_a_at) / RFU PLEKHG5 (11743358_a_at) / Fold change /veh PLEKHG5 (11743358_a_at) / RFU ZSCAN30 (11745921_a_at) / Fold change /veh ZSCAN30 (11745921_a_at) / RFU CMKLR1 (11741424_a_at) / Fold change /veh CMKLR1 (11741424_a_at) / RFU LOC101060620 /// MAPK8IP1 (11723275_at) / Fold change /veh LOC101060620 /// MAPK8IP1 (11723275_at) / RFU SPTSSB (11747773_x_at) / Fold change /veh SPTSSB (11747773_x_at) / RFU PRSS12 (11739890_at) / Fold change /veh PRSS12 (11739890_at) / RFU BIN1 (11741810_x_at) / Fold change /veh BIN1 (11741810_x_at) / RFU WNT11 (11732464_a_at) / Fold change /veh WNT11 (11732464_a_at) / RFU C10orf10 (11716521_a_at) / Fold change /veh C10orf10 (11716521_a_at) / RFU C5orf56 (11738089_at) / Fold change /veh C5orf56 (11738089_at) / RFU CYB561 (11721691_x_at) / Fold change /veh CYB561 (11721691_x_at) / RFU ANKRD19P (11752326_a_at) / Fold change /veh ANKRD19P (11752326_a_at) / RFU OR2T12 /// OR2T33 /// OR2T8 (11738714_s_at) / Fold change /veh OR2T12 /// OR2T33 /// OR2T8 (11738714_s_at) / RFU VCAN (11748164_a_at) / Fold change /veh VCAN (11748164_a_at) / RFU JSRP1 (11732532_at) / Fold change /veh JSRP1 (11732532_at) / RFU KRTAP10-11 (11738290_x_at) / Fold change /veh KRTAP10-11 (11738290_x_at) / RFU MYO3A (11730013_a_at) / Fold change /veh MYO3A (11730013_a_at) / RFU EBF3 (11725865_a_at) / Fold change /veh EBF3 (11725865_a_at) / RFU CAMK2N1 (11719241_x_at) / Fold change /veh CAMK2N1 (11719241_x_at) / RFU C5orf56 (11738088_a_at) / Fold change /veh C5orf56 (11738088_a_at) / RFU OLFML3 (11715873_a_at) / Fold change /veh OLFML3 (11715873_a_at) / RFU LOC100653217 /// NTM (11731650_a_at) / Fold change /veh LOC100653217 /// NTM (11731650_a_at) / RFU MAPK11 (11762145_a_at) / Fold change /veh MAPK11 (11762145_a_at) / RFU FIZ1 (11724087_x_at) / Fold change /veh FIZ1 (11724087_x_at) / RFU OASL (11726364_x_at) / Fold change /veh OASL (11726364_x_at) / RFU SOX15 (11748057_x_at) / Fold change /veh SOX15 (11748057_x_at) / RFU CD79A (11719716_a_at) / Fold change /veh CD79A (11719716_a_at) / RFU HIST1H1D (11736915_at) / Fold change /veh HIST1H1D (11736915_at) / RFU CASKIN2 (11723855_a_at) / Fold change /veh CASKIN2 (11723855_a_at) / RFU LOC730098 (11760151_x_at) / Fold change /veh LOC730098 (11760151_x_at) / RFU OR4N2 (11742367_at) / Fold change /veh OR4N2 (11742367_at) / RFU PRRT2 (11749266_a_at) / Fold change /veh PRRT2 (11749266_a_at) / RFU SNX32 (11753110_a_at) / Fold change /veh SNX32 (11753110_a_at) / RFU CDHR5 (11726645_a_at) / Fold change /veh CDHR5 (11726645_a_at) / RFU RCAN1 (11760418_a_at) / Fold change /veh RCAN1 (11760418_a_at) / RFU FAM167A (11723789_a_at) / Fold change /veh FAM167A (11723789_a_at) / RFU FAM26E (11764081_at) / Fold change /veh FAM26E (11764081_at) / RFU ISYNA1 (11749810_s_at) / Fold change /veh ISYNA1 (11749810_s_at) / RFU ACY1 (11761880_at) / Fold change /veh ACY1 (11761880_at) / RFU 11764098_at / Fold change /veh 11764098_at / RFU SAMD14 (11745864_x_at) / Fold change /veh SAMD14 (11745864_x_at) / RFU NPB (11741838_a_at) / Fold change /veh NPB (11741838_a_at) / RFU TMPRSS6 (11731388_a_at) / Fold change /veh TMPRSS6 (11731388_a_at) / RFU KRTAP10-2 (11738614_at) / Fold change /veh KRTAP10-2 (11738614_at) / RFU ARHGAP8 /// PRR5-ARHGAP8 (11727945_x_at) / Fold change /veh ARHGAP8 /// PRR5-ARHGAP8 (11727945_x_at) / RFU KRTAP5-7 /// NADSYN1 (11734609_at) / Fold change /veh KRTAP5-7 /// NADSYN1 (11734609_at) / RFU RASL12 (11751679_a_at) / Fold change /veh RASL12 (11751679_a_at) / RFU CDKN2B (11736163_a_at) / Fold change /veh CDKN2B (11736163_a_at) / RFU PRF1 (11729649_at) / Fold change /veh PRF1 (11729649_at) / RFU, ZNF638 /// ZNF638-IT1 / Fold change vs veh, ZNF638 /// ZNF638-IT1 / RFU, PANK3 / Fold change vs veh, PANK3 / RFU, SH3YL1 / Fold change vs veh, SH3YL1 / RFU, ZEB2 / Fold change vs veh, ZEB2 / RFU, NRIP1 / Fold change vs veh, NRIP1 / RFU, PTTG1IP / Fold change vs veh, PTTG1IP / RFU, CAPN2 / Fold change vs veh, CAPN2 / RFU, MED14 / Fold change vs veh, MED14 / RFU, SNORA58 / Fold change vs veh, SNORA58 / RFU, C1orf63 / Fold change vs veh, C1orf63 / RFU, LRRFIP1 / Fold change vs veh, LRRFIP1 / RFU, NDUFAF7 / Fold change vs veh, NDUFAF7 / RFU, SLC12A2 / Fold change vs veh, SLC12A2 / RFU, IBTK / Fold change vs veh, IBTK / RFU, ESF1 / Fold change vs veh, ESF1 / Fold change vs veh, TMEM50B / RFU, TAOK1 / Fold change vs veh, TAOK1 / RFU, ACBD3 / Fold change vs veh, ACBD3 / RFU, TMA16 / Fold change vs veh, TMA16 / RFU, RWDD3 / Fold change vs veh, RWDD3 / RFU, BCAT1 / Fold change vs veh, BCAT1 / RFU, EDEM3 / Fold change vs veh, EDEM3 / RFU, TMEM33 / Fold change vs veh, TMEM33 / RFU, WDR75 / Fold change vs veh, WDR75 / RFU, AHCTF1 / Fold change vs veh, AHCTF1 / RFU, TFRC / Fold change vs veh, TFRC / RFU, ZDHHC17 / Fold change vs veh, ZDHHC17 / RFU, NOM1 / Fold change vs veh, NOM1 / RFU, ARL8B / Fold change vs veh, ARL8B / RFU, ZBTB11 / Fold change vs veh, ZBTB11 / RFU, TAMM41 / Fold change vs veh, TAMM41 / RFU, KIAA1704 /// LOC100996395 / Fold change vs veh, KIAA1704 /// LOC100996395 / RFU, ING1 / Fold change vs veh, ING1 / RFU, TRMT61B / Fold change vs veh, TRMT61B / RFU, FUBP3 / Fold change vs veh, FUBP3 / RFU, TP53 / Fold change vs veh, TP53 / RFU, TNKS2 / Fold change vs veh, TNKS2 / RFU, ZFP14 / Fold change vs veh, ZFP14 / RFU, ACTR2 / Fold change vs veh, ACTR2 / RFU, PPP3R1 / Fold change vs veh, PPP3R1 / RFU, PIK3R1 / Fold change vs veh, PIK3R1 / RFU, HNRNPA1 / Fold change vs veh, HNRNPA1 / RFU, RNF170 / Fold change vs veh, RNF170 / RFU, ZNF28 / Fold change vs veh, ZNF28 / RFU, RNGTT / Fold change vs veh, RNGTT / RFU, OGT / Fold change vs veh, OGT / RFU, BRD1 / Fold change vs veh, BRD1 / RFU, MARS / Fold change vs veh, MARS / RFU, ZNF655 / Fold change vs veh, ZNF655 / RFU, FAHD1 / Fold change vs veh, FAHD1 / RFU, BDP1 / Fold change vs veh, BDP1 / RFU, LRRCC1 / Fold change vs veh, LRRCC1 / RFU, ARID1A / Fold change vs veh, ARID1A / RFU, ZNF146 / Fold change vs veh, ZNF146 / RFU, ZNF330 / Fold change vs veh, ZNF330 / RFU, GPN3 / Fold change vs veh, GPN3 / RFU, C9orf123 / Fold change vs veh, C9orf123 / RFU, N4BP2L2 / Fold change vs veh, N4BP2L2 / RFU, ARFIP1 / Fold change vs veh, ARFIP1 / RFU, FAM179B / Fold change vs veh, FAM179B / RFU, BCL10 / Fold change vs veh, BCL10 / RFU, UHRF1BP1L / Fold change vs veh, UHRF1BP1L / RFU, BET1 / Fold change vs veh, BET1 / RFU, CNOT2 / Fold change vs veh, CNOT2 / RFU, ZNF268 / Fold change vs veh, ZNF268 / Fold change vs veh, ZNF507 / RFU, DGCR2 / Fold change vs veh, DGCR2 / RFU, WDSUB1 / Fold change vs veh, WDSUB1 / Fold change vs veh, HSP90B1 /// MIR3652 / RFU, ADSS / Fold change vs veh, ADSS / RFU, GK / Fold change vs veh, GK / RFU, ZNF148 / Fold change vs veh, ZNF148 / RFU, TAF9 / Fold change vs veh, TAF9 / RFU, SLC1A5 / Fold change vs veh, SLC1A5 / RFU, SLMO2 / Fold change vs veh, SLMO2 / RFU, ABCC4 / Fold change vs veh, ABCC4 / RFU, LOC101060439 /// RAP1B / Fold change vs veh, LOC101060439 /// RAP1B / RFU, RFX7 / Fold change vs veh, RFX7 / RFU, GTPBP10 / Fold change vs veh, GTPBP10 / RFU, CNEP1R1 / Fold change vs veh, CNEP1R1 / RFU, BIVM-ERCC5 /// ERCC5 / Fold change vs veh, BIVM-ERCC5 /// ERCC5 / RFU, ILF3 / Fold change vs veh, ILF3 / RFU 11762660_at / Fold change /veh 11762660_at / RFU VCAN (11757783_s_at) / Fold change /veh VCAN (11757783_s_at) / RFU DDX43 (11728927_at) / Fold change /veh DDX43 (11728927_at) / RFU KRT8 (11758188_x_at) / Fold change /veh KRT8 (11758188_x_at) / RFU NKD1 (11759106_at) / Fold change /veh NKD1 (11759106_at) / RFU SRD5A1 (11742802_a_at) / Fold change /veh SRD5A1 (11742802_a_at) / RFU TPSAB1 /// TPSB2 (11721975_s_at) / Fold change /veh TPSAB1 /// TPSB2 (11721975_s_at) / RFU GSTM3 (11746129_a_at) / Fold change /veh GSTM3 (11746129_a_at) / RFU IL23R (11737362_x_at) / Fold change /veh IL23R (11737362_x_at) / RFU TMEM51 (11727254_a_at) / Fold change /veh TMEM51 (11727254_a_at) / RFU PIWIL2 (11732686_x_at) / Fold change /veh PIWIL2 (11732686_x_at) / RFU ORM1 (11744905_x_at) / Fold change /veh ORM1 (11744905_x_at) / RFU CCDC152 (11743942_at) / Fold change /veh CCDC152 (11743942_at) / RFU ECM1 (11717891_a_at) / Fold change /veh ECM1 (11717891_a_at) / RFU IL23R (11748794_a_at) / Fold change /veh IL23R (11748794_a_at) / RFU TNFAIP8L3 (11732012_x_at) / Fold change /veh TNFAIP8L3 (11732012_x_at) / RFU MBOAT4 (11741988_at) / Fold change /veh MBOAT4 (11741988_at) / RFU 11764193_at / Fold change /veh 11764193_at / RFU TMEM53 (11763286_at) / Fold change /veh TMEM53 (11763286_at) / RFU MAGEB2 (11727129_at) / Fold change /veh MAGEB2 (11727129_at) / RFU TMEM200A (11744735_a_at) / Fold change /veh TMEM200A (11744735_a_at) / RFU CCDC152 (11751479_a_at) / Fold change /veh CCDC152 (11751479_a_at) / RFU FAM211A (11726209_a_at) / Fold change /veh FAM211A (11726209_a_at) / RFU RGS16 (11746705_a_at) / Fold change /veh RGS16 (11746705_a_at) / RFU VCAN (11755009_s_at) / Fold change /veh VCAN (11755009_s_at) / RFU RHOB (11743442_s_at) / Fold change /veh RHOB (11743442_s_at) / RFU RGS16 (11720943_a_at) / Fold change /veh RGS16 (11720943_a_at) / RFU RGS16 (11720944_at) / Fold change /veh RGS16 (11720944_at) / RFU, VPS4B / Fold change vs veh, VPS4B / RFU, CREB1 / Fold change vs veh, CREB1 / RFU, DNAJC13 / Fold change vs veh, DNAJC13 / RFU, GNAQ / Fold change vs veh, GNAQ / RFU, CDK5R1 / Fold change vs veh, CDK5R1 / RFU, ZRANB3 / Fold change vs veh, ZRANB3 / RFU, CUL4A / Fold change vs veh, CUL4A / RFU, CCNY / Fold change vs veh, CCNY / RFU, UFL1 / Fold change vs veh, UFL1 / RFU, COG3 / Fold change vs veh, COG3 / RFU, DIAPH2 / Fold change vs veh, DIAPH2 / RFU, SKA2 / Fold change vs veh, SKA2 / RFU, AFF3 / Fold change vs veh, AFF3 / RFU, LMF1 / Fold change vs veh, LMF1 / RFU, IPO11 / Fold change vs veh, IPO11 / RFU, DFFB / Fold change vs veh, DFFB / RFU, FOXP1 / Fold change vs veh, FOXP1 / RFU, CARD8 / Fold change vs veh, CARD8 / RFU, STRN3 / Fold change vs veh, STRN3 / RFU, ADK / Fold change vs veh, ADK / RFU, RASSF2 / Fold change vs veh, RASSF2 / RFU, WIPF1 / Fold change vs veh, WIPF1 / RFU, LARP1B / Fold change vs veh, LARP1B / RFU, RASA1 / Fold change vs veh, RASA1 / RFU, RB1 / Fold change vs veh, RB1 / RFU, PPFIA1 / Fold change vs veh, PPFIA1 / RFU, MAT2A / Fold change vs veh, MAT2A / RFU, CCT5 / Fold change vs veh, CCT5 / RFU, WDR92 / Fold change vs veh, WDR92 / RFU, CUX1 / Fold change vs veh, CUX1 / RFU, TTC7A / Fold change vs veh, TTC7A / RFU, TMEM135 / Fold change vs veh, TMEM135 / RFU, DEPTOR / Fold change vs veh, DEPTOR / RFU, CPM / Fold change vs veh, CPM / RFU, DNAJB6 / Fold change vs veh, DNAJB6 / RFU, CACNA2D3 / Fold change vs veh, CACNA2D3 / RFU, DTX4 / Fold change vs veh, DTX4 / RFU, TFCP2 / Fold change vs veh, TFCP2 / RFU, GMCL1 /// GMCL1P1 / Fold change vs veh, GMCL1 /// GMCL1P1 / RFU, AEBP2 / Fold change vs veh, AEBP2 / RFU, SNHG1 /// SNORD22 /// SNORD25 /// SNORD26 /// SNORD27 /// SNORD28 /// SNORD29 /// SNORD31 / Fold change vs veh, SNHG1 /// SNORD22 /// SNORD25 /// SNORD26 /// SNORD27 /// SNORD28 /// SNORD29 /// SNORD31 / Fold change (Aza/veh), C12orf56 (ProbeSet 11735607_a_at) / Fold change (ACY-1035/veh), C12orf56 (ProbeSet 11735607_a_at) / Fold change (Aza/veh), FGFR1OP (ProbeSet 11751329_s_at) / Fold change (ACY-1035/veh), FGFR1OP (ProbeSet 11751329_s_at) / Fold change (Aza/veh), VPS36 (ProbeSet 11739960_a_at) / Fold change (ACY-1035/veh), VPS36 (ProbeSet 11739960_a_at) / RFU SYPL1 (11715823_x_at) / Fold change /veh SYPL1 (11715823_x_at) / RFU IGFBP7 (11715501_s_at) / Fold change /veh IGFBP7 (11715501_s_at) / RFU REEP3 (11722064_at) / Fold change /veh REEP3 (11722064_at) / RFU IGLL1 (11728026_x_at) / Fold change /veh IGLL1 (11728026_x_at): dose or concentration left out as unconfirmed
# Settings: ProbeSet 11739106_a_at; LIST B
smiles,measurement,value
Nc1ccc(-c2cccs2)cc1NC(=O)c1ccc2c(c1)cc(C1CC1)n2CCN1CCOCC1 [ACY-1035],"Fold change vs veh, TMEM33",0.87
